Measured values from US11524082B2, “FBSA-based therapeutic and radioimaging conjugates targeting carbonic anhydrase positive cancers” (priority 2017, dated 2022).

Key:
HT29 xenografts = tested on: HT29 xenografts; parameters: species or system mice; details: in vivo
Procedure: (§1) Whole-Body Imaging and Biodistribution of Radiolabeled 17 in Mouse Xenograft Models
(§2) SKRC52, HT29, or A549 cells (˜3×10^6 cells per mouse) were injected subcutaneously into the shoulders of female athymic nu/nu mice. Growth of the tumors was measured in two perpendicular directions and the volumes of the tumors were calculated as 0.5×L×W^2 (L=longest axis and W=axis perpendicular to L in millimeters). Once tumors reached a minimum of 500 mm^3 in volume, animals were injected with radiolabeled Conjugate 17 (250 μCi) in PBS (100 μL, pH 7.4) via tail vein injection. To obtain whole-body images, mice were anesthetized with isoflurane and images were acquired with a Kodak Imaging Station (In-Vivo FX, Eastman Kodak Company) in combination with CCD camera and Kodak molecular imaging software (version 4.0) with the kidneys shielded. Radioimages were acquired using the following parameters: radio isotope illumination source, 3 min acquisition time, f-stop=4, focal plane=5, FOV=160, binning=8. White light images were acquired using the following parameters: white light transillumination illumination source, 0.175 s acquisition time, f-stop=16, focal plane=5, FOV=160, and no binning. After acquiring the whole-body imaging, the mice were sacrificed with CO2 asphyxiation and, following necropsy, the tissues were placed into preweighed γ-counter tubes. The radioactivity of the tissues and a fraction of the injected dose was measured in a γ-counter (Packard, Packard Instrument Company). Count per minute (CPM) values were corrected for decay times, and the results were calculated as percent of the injected dose per gram (% ID/g) of wet tissue.

SKRC52 xenografts = tested on: SKRC52 xenografts; parameters: species or system mice; details: mouse, in vivo
Procedure: as §1, §2

A549 xenografts [1] = tested on: A549 xenografts; parameters: species or system mice; details: in vivo
Procedure: as §1, §2
250 μCi of radiolabeled Conjugate 17 was injected into the tail vein of mice bearing xenografts derived from the A549 cell line. At various time points shown in Table 3, the tissues were removed from the mice (n=1 per time point), weighed, and the radioactivity was quantified on a gamma counter. Because copper-64 emits gamma radiation at 511 keV in 36% abundance, it is possible to use gamma detection methods.

CAIX [2] = molecular target: T1, CAIX (Homo sapiens, UniProt Q16790); assay: Binding affinity of CAIX FITC conjugates by flow cytometry in HT-29 cells; parameters: expressed in transfected cells; details: FIG. 4
Procedure: (§3) General Procedure for Binding Affinity Determination of CAIX FITC Conjugates
(§4) HEK293 transfected with CAIX, SKRC52, HT29, or A549 cells (0.25×10^6) were placed into 1.5 ml centrifuge tubes with 0.3 mL of fresh DMEM medium containing increasing concentrations of CAIX FITC conjugates in the presence or absence of 100-fold excess CAIX inhibitor (Compound 3, 3-((2-(cyclooctylamino)-3,5,6-trifluoro-4-sulfamoylphenyl)sulfonyl)propanoic acid. After incubating for 1 h at 25° C., cells were rinsed twice with 1 mL of medium. The cells were transferred into a 96-well plate and the mean florescence intensity (MFI) was read using flow cytometry (BD Accuri C6, BD Biosciences). Apparent KD was calculated by plotting MFI versus the concentration of the FITC conjugates using GraphPad Prism 4. For hypoxia experiments, cells were incubated under an atmosphere containing 1% oxygen, 5% carbon dioxide, and 94% nitrogen for 24-48 hours in a hypoxia chamber.

CAIX [3] = molecular target: T1, CAIX; assay: Binding affinity of CAIX FITC conjugates by flow cytometry in A549 cells; parameters: expressed in transfected cells; details: FIG. 7
Procedure: as §3, §4

SKRC52 cells = assay: Fluorescent confocal microscopy of FBSA-PEG2-FITC conjugate in SKRC52 cells; type: cell-based, Human; details: 25 nM conjugate, 1 hour at 37° C.; competition with 100-fold excess Compound 3; FIG. 1
Procedure: Fluorescent Microscopy of FBSA-PEG2-FITC Conjugate, Conjugate 5.
Metastatic Human Renal Cell Carcinoma (SKRC52) cells (10^5) were seeded into chambered coverglass plates and allowed to grow to confluence over 24 hours (hr). Spent medium was replaced with 0.5 mL of fresh medium containing 10% fetal bovine serum albumin and 25 nM concentration of the FITC conjugate, Conjugate 5, alone or the dye conjugate plus 100-fold excess CAIX inhibitor (Compound 3, 3-((2-(cyclooctylamino)-3,5,6-trifluoro-4-sulfamoylphenyl)sulfonyl)propanoic acid). After incubation for 1 hour at 37° C., cells were rinsed twice with 1 mL of media to remove unbound fluorescence and 0.5 ml of fresh incubation medium was added to the wells. Images were acquired using a confocal microscopy (FV 1000, Olympus).

CAIX [4] = molecular target: T1, CAIX; assay: Binding affinity of CAIX FITC conjugates by flow cytometry in HEK293 transfected with CAIX; parameters: expressed in transfected cells; host or cells: HEK293
Source text: as §3

CAIX [5] = molecular target: T1, CAIX; assay: Binding affinity of CAIX FITC conjugates by flow cytometry in SKRC52 cells; parameters: endogenous in cells; host or cells: SKRC52
Source text: as §3

A549 xenografts [6] = assay: In vivo efficacy of Conjugate 14 in A549 xenografts; parameters: species or system mice; details: 1.25 umole/kg TIW for three weeks, FIG. 17
Procedure: (§5) Athymic nu/nu mice were purchased from Harlan Laboratories (ENVIGO), housed in a sterile environment on a standard 12 hour light-dark cycle and maintained on normal rodent chow. All animal procedures were approved by the PURDUE Animal Care and Use Committee in accordance with National Institutes of Health guidelines.
(§6) Cells, HT-29 cells (4.25×10^6) were subcutaneously injected into the shoulders of 5-6 week old female nu/nu mice. Tumors were measured in two perpendicular directions thrice weekly with vernier calipers and their volumes were calculated as 0.5×L×W^2, where L is the longest axis (in millimeters), and W is the axis perpendicular to L (in millimeters). Dosing of Conjugate 12 was initiated when the subcutaneous tumors reached ˜100-275 mm^3 in volume. Dosing solutions were prepared in saline and filtered through a 0.22 μm filter. Solutions were administered via tail vein injection or intraperitoneally. Each mouse received 2 μmol/kg Conjugate 12 per injection. Injections were given every two days and the mice were weighed concurrently.
Similar experiments were performed using Conjugate 14 with A549 cells instead of HT-29 cells (FIGS. 17 and 18).

HT-29 xenografts = assay: In vivo efficacy of tubulysin conjugates in HT-29 xenograft tumors; parameters: species or system mice
Procedure: as §5
In Vivo Efficacy of Tubulysin Conjugate 12 in HT29 Xenograft Tumors.
as §6, with “Each mouse received 2 μmol/kg Conjugate 12 per injection.” left out, “concurrently. […]” for “concurrently.”

CAIX [7] = molecular target: T1, CAIX; assay: In vitro binding affinity of radiolabeled Conjugate 17 in A549 cells (gamma counting); parameters: expressed in transfected cells; details: 64Cu-radiolabeled, 1 h at 25° C., FIG. 10
Procedure: (§7) In Vitro Binding Affinity of Radiolabeled Conjugate 17
(§8) SKRC52, HT29, A549 cells (˜0.25×10^6) were seeded in a 24-well plate and allowed to grow overnight. Fresh medium containing increasing concentrations of radiolabeled Conjugate 17, as prepared in Example 17, in the presence or absence of 100-fold excess FBSA competition compound was added. All concentrations were examined in duplicate or triplicate. After incubating for 1 h at 25° C., cells were washed with PBS (3×0.5 mL). To each well was added 0.5 M NaOH. After 10 min, 0.45 mL of the NaOH was removed and the radioactivity was measured with a γ-counter (Packard, Packard Instrument Company). The apparent binding affinity was calculated by plotting the bound radioactivity versus the concentration of the radiolabeled conjugate with GraphPad Prism 4.

CAIX [8] = molecular target: T1, CAIX; assay: In vitro binding affinity of radiolabeled Conjugate 17 in SKRC52 cells (gamma counting); parameters: endogenous in cells; host or cells: SKRC52
Procedure: as §7, §8

NS(=O)(=O)c1c(F)c(F)c(S(=O)(=O)CCC(=O)NCCOCCOCCC(=O)NCCNC(=O)CCC(C(=O)O)N2CCN(CC(=O)O)CCN(CC(=O)O)CC2)c(NC2CCCCCCC2)c1F (stereo not shown) (64Cu complex, metal not drawn) [radiolabeled Conjugate 17]
tumor uptake in whole-body image, targeted versus competition mouse (HT29 xenografts): also demonstrated in mice bearing HT29 xenografts | tumor to tissue background ratios (HT29 xenografts; mouse): not very good | radioactivity at the tumor, with competition control (SKRC52 xenografts): the radioactivity at the tumor was receptor mediated | uptake of removed tumors, targeted versus competition (SKRC52 xenografts): higher tumor uptake in the targeted mouse versus the competition mice | radiation count at the tumor site, competition mouse versus non-competition mouse (A549 xenografts [1]): much lower radiation count at the tumor site | tumor uptake in whole-body image, targeted versus competition mouse (A549 xenografts [1]): much higher tumor uptake than that of the competition mouse | time of the highest tumor-to-tissue ratio (A549 xenografts [1]; mouse): nine

NS(=O)(=O)c1c(F)c(F)c(S(=O)(=O)CCC(=O)NCCOCCOCCC(=O)NC(CSC2CC(=O)N(c3ccc(-c4c5ccc(=O)cc-5oc5cc(O)ccc45)c(C(=O)O)c3)C2=O)C(=O)O)c(NC2CCCCCCC2)c1F (stereo not shown) [Conjugate 5, 2-(((1-(3-carboxy-4-(6-hydroxy-3-oxo-3H-xanthen-9-yl)phenyl)-2,5-dioxopyrrolidin-3-yl)thio)methyl)-16-((2-(cyclooctylamino)-3,5,6-trifluoro-4-sulfamoylphenyl)sulfonyl)-4,14-dioxo-7,10-dioxa-3,13-diazahexadecanoic acid]
binding with competition by unconjugated inhibitor (CAIX [2]; 100-fold excess unconjugated inhibitor (Compound 3)): bound the cells and competed in the presence of 100-fold excess unconjugated inhibitor | Kd (CAIX [2]): 4.55 nM | Kd (CAIX [3]): 6.04 nM | cell binding by confocal microscopy, alone and with excess CAIX inhibitor (SKRC52 cells): bound the cells and were competed in the presence of excess unconjugated inhibitor | Kd (CAIX [4]; HEK293-CA9 cells, FIG. 2 / FIG. 5, apparent KD from MFI, 1 h at 25° C., read-out: KD): 17.9 nM | Kd (CAIX [5]; SKRC52 cells under hypoxia (1% oxygen, 24-48 hours), FIG. 6, read-out: KD, Hypoxia SKRC52): 4.72 nM | Kd (CAIX [5]; SKRC52 cells without hypoxia, FIG. 6, read-out: binding affinity, Normoxia SKRC52): 4.57 nM | Kd (CAIX [5]; SKRC52 cells, FIG. 3, apparent KD from MFI, 1 h at 25° C., read-out: KD): 1.28 nM

N[C@@H](CNC(=O)CCOCCOCCOCCOCCNC(=O)CCS(=O)(=O)c1c(F)c(F)c(S(N)(=O)=O)c(F)c1NC1CCCCCCC1)C(=O)N[C@@H](CC(=O)O)C(=O)N[C@@H](CSC1CC(=O)N(c2ccc(-c3c4ccc(=O)cc-4oc4cc(O)ccc34)c(C(=O)O)c2)C1=O)C(=O)O (stereo partly drawn) [Conjugate 7, 5-(3-(((2R,5S,8S)-8-amino-2-carboxy-5-(carboxymethyl)-29-((2-(cyclooctylamino)-3,5,6-trifluoro-4-sulfamoylphenyl)sulfonyl)-4,7,11,27-tetraoxo-14,17,20,23-tetraoxa-3,6,10,26-tetraazanonacosyl)thio)-2,5-dioxopyrrolidin-1-yl)-2-(6-hydroxy-3-oxo-3H-xanthen-9-yl)benzoic acid]
Kd (CAIX [4]): 55.2 nM | binding with competition by unconjugated inhibitor (CAIX [4]; HEK293-CA9 cells, 100-fold excess unconjugated inhibitor (Compound 3), FIG. 5): bound the cells and competed in the presence of 100-fold excess unconjugated inhibitor | Kd (CAIX [5]): 4.57 nM

CCCC(=O)OCN(C(=O)[C@@H](NC(=O)C1CCCCN1C)[C@@H](C)CC)[C@H](C[C@@H](OC(C)=O)c1nc(C(=O)N[C@@H](Cc2ccc(O)cc2)C[C@H](C)C(=O)NNC(=O)OCCSSC[C@H](NC(=O)[C@H](CC(=O)O)NC(=O)[C@@H](N)CNC(=O)C(CC(=O)O)NC(=O)C(CCCNC(=N)N)NC(=O)C(CC(=O)O)NC(=O)CCOCCOCCNC(=O)CCS(=O)(=O)c2c(F)c(F)c(S(N)(=O)=O)c(F)c2NC2CCCCCCC2)C(=O)O)cs1)C(C)C (stereo partly shown) [Conjugate 14]
tumor response (A549 xenografts [6]): stable tumor regression and stable disease until treatment cessation | whole body mass, other doses (HT-29 xenografts; HT-29 xenograft mice, 1.5, 1, 0.5, 0.25 μmole/kg, n=1 each, FIG. 14): acceptable body mass profiles | whole body mass, highest dose (HT-29 xenografts; HT-29 xenograft mice, highest dose (2 μmole/kg), n=1, FIG. 14): loss of body mass | tumor reemergence, starting day (HT-29 xenografts; HT-29 xenografts, 1 umole/kg, n=1, FIG. 13): 16 days | tumor response (HT-29 xenografts; HT-29 xenografts, 1.25 umole/kg TIW for three weeks, n=5, FIG. 15): stable tumor regression and stable disease until treatment cessation | tumor response, dose escalation (HT-29 xenografts; HT-29 xenografts, doses 2, 1.5, and 1 umole/kg, n=1 for each dose, FIG. 13): shrank tumors

NS(=O)(=O)c1c(F)c(F)c(S(=O)(=O)CCC(=O)NCCOCCOCCC(=O)NCCNC(=O)CCC(C(=O)O)N2CCN(CC(=O)O)CCN(CC(=O)O)CC2)c(NC2CCCCCCC2)c1F (stereo not shown) [radiolabeled Conjugate 17]
Kd (CAIX [7]): 6.04 nM | bound radioactivity in competition controls (CAIX [8]; SKRC52 and A549 cells, 100-fold excess of unlabeled FBSA-COOH): significantly less bound radioactivity | concentration reaching saturation of binding (CAIX [8]; SKRC52 and A549 cells, FIGS. 9 and 10): approximately 75 nM | Kd (CAIX [8]; SKRC52 cells, 64Cu-radiolabeled, 1 h at 25° C., FIG. 9): 5.87 nM
